The text below walks through data of patent US5677292A, “Derivatives of estra 1,3,5(10)triene-17-one,3-amino compounds and their use” (Duquesne University of the Holy Ghost, priority 1996, dated 1997).

“Also recorded” adds a separate entry of the source.

In experiment [1] the test system is uterine weight of ovariectomized rats. Put plainly: Ovariectomized rat uterine weight gain assay: estrogenicity. As to conditions: for Estrogenicity: increase in uterine weight of ovariectomized rats compared with control / Uterine weight compared with other groups (control and E1 -NH2): 25 μg/day, i.p., seven days; for Estrogenicity: increase in uterine weight of ovariectomized rats compared with control: n=5; for Uterine weight compared with other groups (control and E1 -NH2): Student-Newman-Keuls test.
Protocol: Estrogenicity and antiestrogenicity were assessed using an ovariectomized rat uterine weight gain assay. […] Ovariectomized rats were maintained two weeks prior to treatment to allow their uteri to regress to basal size. Treatments were given by intraperitoneal injection in a 1% gelatin, 0.9% NaCl solution at a volume of 0.5 ml. Steroids were dissolved in ethanol to 1 mg/ml then further diluted into the injection solution to the desired concentration. All treatments were continued for seven days. At the termination of the experiments, animals were sacrificed by cervical dislocation under ether anesthesia. Body weight was taken, then uteri were excised, stripped of fat, and weighed to the nearest 0.1 mg.
(§1) Steroids were administered at 25 μg/day. For determination of antiestrogenicity, three treatment groups were established: vehicle control, estrone, and estrone E1 NH2.
A rat uterine weight gain assay was used to determine if E1 -NH2 had estrogenic or anti-estrogenic activity. […] Data are means ±SEM, n=5 for all groups. Control animals received vehicle only (0.9% NaCl, 1% gelatin, 500 μl,i.p. injection).

Experiment [2] has as its system estrone-induced uterine weight gain in ovariectomized rats. Put plainly: Ovariectomized rat uterine weight gain assay: anti-estrogenicity (block of estrone-induced uterine weight gain). Type of experiment: in vivo.
Protocol: Estrogenicity and antiestrogenicity were assessed using an ovariectomized rat uterine weight gain assay. […] Ovariectomized rats were maintained two weeks prior to treatment to allow their uteri to regress to basal size. Treatments were given by intraperitoneal injection in a 1% gelatin, 0.9% NaCl solution at a volume of 0.5 ml. Steroids were dissolved in ethanol to 1 mg/ml then further diluted into the injection solution to the desired concentration. All treatments were continued for seven days. At the termination of the experiments, animals were sacrificed by cervical dislocation under ether anesthesia. Body weight was taken, then uteri were excised, stripped of fat, and weighed to the nearest 0.1 mg. In vivo, estradiol and estrone can induce uterine weight gain in female ovariectomized rats.
as §1
Antiestrogenicity was assessed as the ability of the compound to block estrone-induced uterine weight gain in ovariectomized rats. […] Control animals received vehicle only (0.9% NaCl, 1% gelatin, 500 μl. i.p. injection).
Experiment [3] concerns the target T1, rat uterine estrogen receptor (Rattus norvegicus, UniProt P06211).
T1 sequence (P06211 1-600): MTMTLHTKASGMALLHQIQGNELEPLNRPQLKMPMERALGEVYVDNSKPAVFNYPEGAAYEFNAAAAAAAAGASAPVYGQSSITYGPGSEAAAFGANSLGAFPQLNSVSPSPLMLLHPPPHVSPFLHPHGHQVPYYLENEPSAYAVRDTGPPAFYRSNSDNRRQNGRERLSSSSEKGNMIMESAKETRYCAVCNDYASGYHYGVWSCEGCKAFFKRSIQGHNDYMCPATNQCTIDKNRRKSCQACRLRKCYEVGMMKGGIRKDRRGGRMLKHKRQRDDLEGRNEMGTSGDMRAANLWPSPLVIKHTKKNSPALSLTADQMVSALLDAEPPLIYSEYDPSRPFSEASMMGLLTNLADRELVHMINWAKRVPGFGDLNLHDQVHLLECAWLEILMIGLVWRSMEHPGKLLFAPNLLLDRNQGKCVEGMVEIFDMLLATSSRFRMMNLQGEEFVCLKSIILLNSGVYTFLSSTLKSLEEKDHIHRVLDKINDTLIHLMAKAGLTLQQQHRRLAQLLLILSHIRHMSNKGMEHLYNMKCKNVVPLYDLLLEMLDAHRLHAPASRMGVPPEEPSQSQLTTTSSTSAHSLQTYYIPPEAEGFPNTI
Put plainly: Estrogen receptor binding, displacement of 3H-estradiol in rat uterine cytosol. The procedure:
Specific binding was calculated as total binding minus nonspecific binding.
On the technique in general: Loss of bound radioactivity is the signal in a displacement assay; it reports binding, not function.

Experiment [4] deals with nitrosomethyl urea-induced tumor cells in castrated rats. As to conditions: cited from earlier work.

On to `C[C@]12CC[C@@H]3c4ccc(O)cc4CC[C@H]3[C@@H]1CC[C@@H]2O` [estradiol, estradiol-17β], for which, in experiment [1], the “Estrogenicity: increase in uterine weight of ovariectomized rats compared with control” value (“Estrogenicity: increase” for short) is given as “significantly increased uterine weight above control levels”; the “Uterine weight compared with other groups (control and E1 -NH2)” value is “significantly (p≤0.05) higher than other groups”.

Regarding `C[C@]12CC[C@@H]3c4ccc(N)cc4CC[C@H]3[C@@H]1CCC2=O` [E1 -NH2, estra-1,3,5(10)-triene-17-one, 3-amine], in experiment [2] (E1 -NH2 100 μg/day with estrone 2 μg/day, i.p., seven days, n=5), the “Anti-estrogenicity: block of estrone-induced uterine growth” value is “did not block estrone-induced uterine growth”. In experiment [2] (FIGS. 4 and 5), the “Anti-estrogenicity (conclusion)” value was “neither estrogenic nor anti-estrogenic”. The “Competition for / interaction with estrogen receptor” value in experiment [3] (rat uterine cytosol, 0.01, 0.1 and 1 μM competitor) is “did not compete for estrogen receptor at the same level as estrone; also recorded: does not interact to any great extent with an estrogen receptor”. For the same compound, in experiment [3] (read-out: Displacement of specific 3H-estradiol binding), the inhibition at 1 µM was found to be 60%. In addition, the “Estrogenicity: increase” value in experiment [1] is “did not cause a significant increase in uterine weight”. Moreover, the “Estrogenicity (conclusion)” value in experiment [1] (FIGS. 4 and 5) is on record as “neither estrogenic nor anti-estrogenic”.

Turning to `C[C@]12CC[C@@H]3c4ccc(O)cc4CC[C@H]3[C@@H]1CCC2=O` [estrone], in experiment [1], the “Estrogenicity: increase” value is given as “significantly increased uterine weight above control levels”; the “Uterine weight compared with other groups (control and E1 -NH2)” value is “significantly (p≤0.05) higher than other groups”.

As to estrone sulfate, the “Stimulation of tumor cell growth” value in experiment [4] is “stimulate growth of nitrosomethyl urea-induced tumor cells in castrated rats”.
